Test system: protein encoded by cDNA contained in pSPB1123 (flavonol 3GT)
Experiment: Glucosyltransferase activity of the protein encoded by pSPB1123 cDNA expressed in yeast, product measured by HPLC
Format: biochemical, rose
Details: flavonol substrates compared
Text: In order to analyze the activity of a protein encoded by cDNA contained in pSPB1123, this cDNA was expressed in yeast cells. Yeast expression vector pYE22m (Plant Cell Physiol. (1996) 37, 711-716) was used to express the cDNA in yeast. A fragment obtained by digested pSPB1123 cDNA with EcoRI and KpnI was inserted into an EcoRI and KpnI recognition sequence of pYE22m to obtain a yeast expression vector. This vector was then inserted into yeast strain G1315 followed by measurement of activity of the protein encoded by pSPB1123 according to the method described on pp. 114-118 of Shinseibutsugaku Jikken (New Biological Experiment) Manual 3 (Kagaku-Dojin Publishing Co., Inc.). The method for measuring activity and the conditions for measuring a product by HPLC were the same as the method and the like described in Plant Physiology (2003) 132, 1652-1663. Furthermore, anthocyanin (cyanidin, pelargonidin), cyanidin 3-glucoside (cyanidin 3G), cyanidin 3,5-diglucoside (cyanidin 3,5G), flavonol (quercetin, kaempferol) and flavone (apigenin, luteolin) were used as substrates for measurement of the activity.

Row | substrate preference | SMILES
1 | prefer quercetin to kaempferol | O=c1c(O)c(-c2ccc(O)cc2)oc2cc(O)cc(O)c12 [kaempferol]
2 | prefer quercetin to kaempferol | O=c1c(O)c(-c2ccc(O)c(O)c2)oc2cc(O)cc(O)c12 [quercetin]

— US20100306877A1, “FLAVONOID GLUCOSYLTRANSFERASE AND USE OF SAME” (International Flower Development Proprietary Limited, priority 2006, published 2010)
